This note sets out measurements from patent publication US11332470B2, “CXCR4 inhibitors and uses thereof” (X4 Pharmaceuticals, Inc., priority 2016, dated 2022).

In one series the target is T1, CXCR4 (U87.CXCR4 cells) (Homo sapiens, UniProt P61073).
T1 construct: expressed in transfected cells; host or cells: U87 (U87.CXCR4)
Briefly: Intracellular CXCL-12-induced calcium mobilization assay (FLIPR). The series is classed as cell-based. The following applies: CXCL-12 25-50 ng/mL, read-out: IC50 CXCL-12 Ca2+ flux U87.CXCR4+. In short, it runs like this: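 U87.CXCR4 cells were loaded with 4 μM Fluo-2 AM for 45 min at 37 °C in HBSS/20 mM HEPES/0.2% BSA, pH 7.4. Calcium flux induced by CXCL-12 (25-50 ng/mL) was monitored kinetically by FLIPR fluorescence at 37 °C.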

A further series in a line: in vitro. The following applies: human, Caco-2, pH 7.4. In short, it runs like this:
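Compound at 10 μM in HBSS pH 7.4 dosed A-to-B and B-to-A across Caco-2 monolayers, 90 min at 37 °C, duplicates. Monolayer integrity by TEER and lucifer yellow (5 μM, fluorescence 485/535 nm); compound quantified by LC-MS/MS.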

A short description of series [1]: Mouse brain uptake assay (pharmacokinetics and brain penetration after IV administration). The series is classed as in vivo, Male CD1 Mice. As to conditions: male, 3 mg/kg IV, 3 time points; for Kp: CD1, brain and plasma, read-out: Kp (brain/plasma drug concentration ratio, AUC last(b)/AUC last(p)); for Kp / clearance / half-life: mouse, 0-1 h; for clearance / half-life: CD1, plasma; for clearance: read-out: Cl (Clearance) (converted); for half-life: read-out: t½ (half life) (converted); for AUC(0-t): CD1, time zero to 1 hr. How it is done: Example 15: Pharmacokinetics and Brain Penetration Experiment to Determine Brain and Plasma Concentrations of Compounds after IV Administration to Male CD1 Mice or Male SD Rats
The study design (9 animals) consisted of administrating the drug (IV: 3 mg/kg (5 mL/kg) via tail vein injection) and collecting samples at terminal bleeding for plasma and brain at 0.083, 0.5 and 1 h. The blood collection was performed as follows: the animal was restrained manually and approximately 150 μL blood/time point was collected into a dipotassium EDTA tube via retro orbital puncture under anesthesia with isoflurane. The blood sample was put on ice and centrifuged to obtain a plasma sample (2000 g, 5 min under 4° C.) within 15 minutes. The brain collection was performed as follows: a mid-line incision was made in the animal's scalp and the skin was retracted. Using small bone cutters and rongeurs, the skull overlying the brain was removed. The brain was removed using a spatula and the brain rinsed with cold saline. The brain was placed in screw-top tubes, and the tubes were stored at −70° C. until analysis. The IV dosing solution was prepared in 50 mM citrate buffer (pH 4.0) at 0.6 mg/mL.
Plasma Sample Preparation:
An aliquot of 30 μL sample was added to […] containing 50 ng/mL IS (Dexamethasone). The mixture was vortexed for 5 min and centrifuged at 14,000 rpm for 5 min. An aliquot of 5 μL supernatant was injected for LC-MS/MS analysis.
Brain Sample Preparation:
An aliquot of 30 μL brain homogenate (brain:PBS=1:3, w/v) sample was added to 150 μL IS in MeCN (Dexamethasone, 50 ng/mL). The mixture was vortexed for 5 min and centrifuged at 14,000 rpm for 5 min. An aliquot of 5 μL supernatant was injected for LC-MS/MS analysis.
The sample analysis was performed on LCMS/MS-003 (API4000, triple quadruple) under the following conditions: positive ion, ESI, MRM detection using dexamethasone as internal standard. HPLC conditions: mobile phase A: H2O (0.025% formic acid (FA) with 1 mM NH4OAc); mobile phase B: MeOH (0.025% FA with 1 mM NH4OAc) on Waters X-Bridge C18 (2.1×50 mm, 2.5 μm) column at 60° C.
A similar experiment was performed with 4 time points taken from 0-24 h.

Series [2] concerns the target T2, CXCR4 (Jurkat cells expressing CXCR4) (Homo sapiens, UniProt P61073).
T2 construct: Jurkat cells expressing CXCR4; endogenous in cells; host or cells: Jurkat
The series is described as follows: Chemokine (CXCL12-AF647) binding inhibition assay. As to conditions: CXCL12-AF647 25 ng/mL, read-out: IC50 CXCL-12 binding Jurkat. In short, it runs like this: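 Cells in HBSS, 20 mM HEPES, 0.2% BSA, pH 7.4, preincubated 15 min at room temperature with compound, then 25 ng/mL CXCL12-AF647 for 30 min. After washing and paraformaldehyde fixation, bound ligand read by flow cytometry; percent inhibition calculated from MFI relative to unlabeled and ligand-only controls.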

[3] abbreviates: mouse brain, read-out: AUClast (b) (area under the brain drug concentration-time curve).
Setting [4] is: mouse plasma, read-out: AUClast (p) (area under the plasma drug concentration-time curve).

SMILES strings stand for the structures. Read-outs that look alike come from different tables or passages of the source.

T1 sequence (P61073 whole entry): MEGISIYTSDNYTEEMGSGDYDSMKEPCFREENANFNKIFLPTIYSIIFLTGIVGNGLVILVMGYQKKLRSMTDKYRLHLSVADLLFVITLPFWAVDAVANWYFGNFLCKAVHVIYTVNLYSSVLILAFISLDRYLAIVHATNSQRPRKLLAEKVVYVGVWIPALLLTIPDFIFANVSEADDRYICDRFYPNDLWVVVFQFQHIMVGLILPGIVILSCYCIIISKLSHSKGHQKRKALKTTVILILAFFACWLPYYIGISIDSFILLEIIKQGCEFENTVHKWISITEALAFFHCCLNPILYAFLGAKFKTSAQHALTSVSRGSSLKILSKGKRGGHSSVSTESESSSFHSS
T2 sequence (P61073 whole entry): as above

As a reminder, the IC50 is the midpoint of a concentration-inhibition curve. The Papp A→B is the apparent permeability from the apical to the basolateral side of a cell layer. Read a low Papp A→B as slow passage. As usually defined, the Papp B→A is how fast a substance crosses the layer from the basolateral side. Usually efflux ratio stands for a quotient of directional permeabilities that is used to spot active efflux. By clearance is commonly meant the volume of plasma or blood freed of the substance per unit of time. A word on the half-life: it is how long it takes for the measured level to halve. As to `Cc1cccnc1C1CCCN1Cc1nc2ccccc2n1C1CCN(C)CC1` (stereo not shown) [Compound I-33], the IC50 at CXCR4 (U87.CXCR4 cells) lay within 100 to 1000 nM. For the same compound, in “in vitro”, the Papp A→B at 90 min, 10 μM lay in the range of 10 to 30 ×10⁻⁶ cm/s; the Papp B→A at 90 min, 10 μM lay in the range of 10 to 30 ×10⁻⁶ cm/s; the efflux ratio at 90 min, 10 μM was 0.1 to 10. Besides, in series [1], the Kp was 6.6, the clearance was 27.5 mL/min/kg and the half-life was 4.93 h. For the same compound, the AUC(0-t) in series [1] (setting [3]) was 1660 ng·h/mL. Further, the AUC(0-t) in series [1] (setting [4]) worked out at 252 ng·h/mL. Further, the 50% inhibitory concentration (IC50) in series [2] was 0.01 to 100 nM.

As to `Cc1cccnc1CN1CCCC1c1nc2cccc(N3CCN(C)CC3)c2[nH]1` (stereo not shown) [Compound I-45], at CXCR4 (U87.CXCR4 cells), the IC50 lay within 0.01 to 100 nM. Moreover, in “in vitro”, the Papp A→B at 90 min, 10 μM is 10 to 30 ×10⁻⁶ cm/s; the Papp B→A at 90 min, 10 μM lay within 10 to 30 ×10⁻⁶ cm/s; the efflux ratio at 90 min, 10 μM was in the range of 0.1 to 10. In series [1], the Kp worked out at 5.51, the clearance was 41.8 mL/min/kg and the half-life was 3.99 h. Moreover, the AUC(0-t) in series [1] (setting [3]) was 833 ng·h/mL. The AUC(0-t) in series [1] (setting [4]) turned out to be 151 ng·h/mL. In series [2], the IC50 lay in the range of 0.01 to 100 nM.

As to `CN1CCN(c2c(CN3CCCC3c3ncccc3Cl)nc3ccccn23)CC1` (stereo not shown) [Compound I-59], the IC50 at CXCR4 (U87.CXCR4 cells) lay within 0.01 to 100 nM. In “in vitro”, the Papp A→B at 90 min, 10 μM lay within 0.1 to 10 ×10⁻⁶ cm/s; the Papp B→A at 90 min, 10 μM was in the range of 10 to 30 ×10⁻⁶ cm/s; the efflux ratio at 90 min, 10 μM lay within 0.1 to 10. In series [1], the Kp was determined as 1.05, the clearance was 58.3 mL/min/kg and the half-life is 3.71 h. Also, in series [1] (setting [3]), the AUC(0-t) is 240 ng·h/mL. Besides, the AUC(0-t) in series [1] (setting [4]) was 227 ng·h/mL. Also, the IC50 in series [2] lay in the range of 0.01 to 100 nM.

Turning to `CN1CCN(c2c(CN3CCCC3c3ccccn3)nc3ccccn23)CC12CC2` (stereo not shown) [Compound I-58], at CXCR4 (U87.CXCR4 cells), the 50% inhibitory concentration (IC50) was 0.01 to 100 nM. In the series “in vitro”, the Papp A→B at 90 min, 10 μM lay in the range of 10 to 30 ×10⁻⁶ cm/s; the Papp B→A at 90 min, 10 μM was 10 to 30 ×10⁻⁶ cm/s; the efflux ratio at 90 min, 10 μM was 0.1 to 10. Also, in series [1], the Kp came to 3.13, the clearance was 38.7 mL/min/kg and the half-life is 3.43 h. Further, the AUC(0-t) in series [1] (setting [3]) is 1230 ng·h/mL. Further, in series [1] (setting [4]), the AUC(0-t) is 393 ng·h/mL. The IC50 in series [2] was in the range of 0.01 to 100 nM.
